“And” between values parts separate entries of the source, which are not always exact repeats. Identical values can stand only once.
Assays:
[1] = system: MRL/lpr mouse; test: Preventive arsenic treatment of MRL/lpr mice; assay type: in vivo
Protocol: This study is aimed at preventing the appearance of the pathologies.
(§1) The aim of this group of animals, which was begun at T0, is to evaluate the preventive effect of an arsenic treatment on the development of the lymphoproliferation and of the autoimmune pathologies. To do this, 4 groups of animals 1.5 months old were formed. Two of these groups consist of MRL/lpr mice and the other two groups consist of MRL+/+ mice. One MRL/lpr group and one MRL+/+ group were treated with 5 μg of arsenic per gram of mouse, and the other two control groups were treated with the dilution buffer for the arsenic. At T0+1 month, animals from each group were sacrificed. The organs analyzed were the thymus, the spleen, the lymph nodes, the skin, the liver, the kidney and the heart. […] The arsenic therefore has a preventive effect on the development of the lymphoproliferation. The phenotype of the lymphoid populations present in this spleen and this node was determined by flow cytometry. As for the results for group 1, the arsenic makes it possible to eliminate the population of double-negative T cells which accumulate as the MRL/lpr mouse ages. In addition, the organs of these treated mice have a normal weight; there is therefore neither the lympho-proliferation nor the hepatomegaly that are observed in the control mice. The liver, the spleen, a lymph node, an eye, etc., were removed in order to be analyzed by anatomopathology.
It is desirable to determine very precisely the preventive and curative effect of various doses of arsenic on the evolution of the pathologies developed by the MRL/lpr mice. Five groups of animals (MRL/lpr and MRL+/+) were treated with the following concentrations: 2.5, 5, 7.5, 10 and 15 μg/g of mouse.

[2] = system: MRL+/+ mouse; test: Arsenic treatment of control MRL+/+ mice; assay type: in vivo
Protocol: (§2) Initially, the inventors determined the optimum dose of arsenic (As2O3) to be injected into the MRL/lpr mice. Two concentrations were chosen: 1 and 5 μg of As2O3/g of mouse. At date T0, these injections were given daily. […] Knowing that the MRL/lpr autoimmune mice die, on average, after 4 to 5 months, compared with the normal MRL+/+ mice which die after ˜2 years, the inventors decided to conserve, for the subsequent treatments, only the dose of 5 μg/g of mice.
(§3) Each of the five groups has its controls consisting in injecting the dilution buffer for the arsenic. In addition, the animals present in the control and treated groups are derived from the same litter, which makes it possible to obtain reliable comparisons. At T0+5 months, more than 60 mice (MRL/lpr and MRL+/+) are undergoing treatment.
(§4) In parallel with these studies on the skin, other organs that are targets for autoimmune pathologies, such as the kidney, the lung, the liver, the eye, etc., were removed and analyzed by anatomopathology. In addition, these various organs, along with the spleen, the lymph nodes and the thymus, were weighed.
as §1

[3] = system: NOD (non obese diabetic) mice; test: Arsenic treatment of diabetic NOD mice, glucose in urine; assay type: in vivo, mouse; details: 5-month-old female NOD mice treated for 2 months
Protocol: 5-Month-old female NOD (non obese diabetic) mice, which were developing the first symptoms of diabetes, were treated for 2 months with arsenic. The evolution of the pathology was evaluated by measuring the amount of glucose in the urine.

[4] = system: MRL/lpr→MRL+/+ chimeras; test: As2O3 treatment of MRL/lpr→MRL+/+ chimeras (GVH reaction); assay type: in vivo, mouse
Protocol: In addition, lethally irradiated MRL+/+ mice had their bone marrow reconstituted with bone marrow from MRL/lpr mice (MRL/lpr→MRL+/+ chimeras) or with bone marrow from MRL+/+ mice (MRL+/+→MRL+/+ chimeras) as a control. After reconstitution, the chimeras are treated with arsenic or are not treated. While 100% of the untreated MRL/lpr→MRL+/+ chimeras died of a graft-versus-host (GvH) reaction two weeks after the transplant, the chimeras treated with arsenic were alive. The arsenic is therefore effective against GvH and makes it possible to spectacularly increase the survival of the animals.
(§5) Hematopoietic chimeras. Spleen and bone marrow cells from MRL/lpr were injected i.v. into MRL+/+ lethally irradiated (1000 cGy) in a ^137Cesium irradiator (MRL/Lpr→MRL+/+ chimeras). The control group consisted of irradiated MRL+/+ grafted with MRL+/+ cells (MRL+/+→MRL+/+ chimeras). All mice used in this graft protocol were sex matched.
(§6) MRL/Lpr→MRL+/+ and MRL+/+→MRL+/+ chimeras were injected i.p. daily with 2.5, 5, 7.5, 10 or 15 μg/g body weight of As2O3; controls received a daily i.p. injection of PBS (volume weight-determined). Treatments were initiated one week post-grafting.
Blood samples were collected at different times after grafting and glutamic-oxaloacetic transaminase (GOT) and glutamic-pyruvic transaminase (GPT) levels were measured (IU/l).
(§7) Serum levels of IFN-α, IFN-γ, soluble FasL, IL-18, TNF-α were assayed using the Mouse Interferon-alpha (PBL Biomedical laboratories, New Jersey, USA), the Mouse Interferon-gamma ELISA Ready-SET-Go (eBioscience, San Diego, Calif.), Mouse Fas Ligand Immunossay (Quantikine M kit; R&D systems, Minneapolis, Minn.), Mouse IL-18 ELISA (R&D Systems), Mouse TNF-α Immunoassay (R&D systems), respectively, following the manufacturer's instructions.
Serum levels of nitrite were measured using the Nitric Oxide quantification kit (Active Motif, Rixensart, Belgium), according to the manufacturer's instructions (data not shown).

[5] = system: MRL+/+→MRL+/+ chimeras; test: As2O3 treatment of control MRL+/+→MRL+/+ chimeras; assay type: in vivo, mouse; details: serum ELISA
Protocol: as §5, §6, §7

[6] = system: MRL/lpr mouse; test: Curative arsenic (As2O3) treatment of MRL/lpr autoimmune mice; assay type: in vivo
Source text: The inventors have studied mice referred to as MRL mice homozygous for the lpr mutation (MRL/lpr). Lymphoproliferation (lpr) results in an accumulation of activated T lymphocytes, of phenotype CD4^+CD8^− or CD4^−CD8^+ which have escaped the process of negative regulation via the apoptotic pathway. Thus, in MRL/lpr mice, hypertrophy of lymph nodes occurs, the mass of which is 100 times greater than that of the lymph nodes of MRL+/+mice, which are congenic for the lpr gene, and a spleen whose size is multiplied by 7 and a thymus whose weight, at the 22nd week, is double that of the MRL+/+ mice are observed. These activated T lymphocytes which accumulate will gradually repress the expression of their CD4 or CD8 receptors and become double-negative T lymphocytes having the phenotype: TCRαβCD4^−CD8^−B220^+, which will be responsible for the lymphoproliferation.
The MRL/lpr mouse is in particular a spontaneous model of autoimmune diseases such as disseminated lupus erythematosus with the presence of erythematous lesions of the skin and of rheumatoid arthritis. […] These mice produce, as they age, a large quantity of autoantibodies which are responsible for a lethal glomerulonephritis due to immunocomplex deposits in the glomeruli of the kidney. Thus, the lifespan of the MRL/lpr mouse is considerably shortened compared with that of the MRL+/+ mouse: ˜4-5 months in the MRL/lpr mouse compared with ˜2 years in the MRL+/+ mouse.
as §2
From the end of the first week of treatment, the inventors formed 5 groups of animals: • b 1st group, aimed at the curative treatment of an already present pathology, • 2nd group, aimed at preventing the appearance of pathologies, • 3rd group, aimed at determining the lifespan of the treated animals, • 4th group, aimed at determining the dose effect, • 5th group, aimed at evaluating the effect of stopping the treatment.
as §3
This study is aimed at the curative treatment of an already present pathology.
as §4
After 1 month and 20 days of treatment, a group of 3 control MRL/lpr mice and a group of 3 treated MRL/lpr mice were sacrificed in order to evaluate the effectiveness of the treatment on the lympho-proliferation. The organs analyzed were the thymus, the spleen and the lymph nodes. […] The phenotype of the lymphoid populations present in this spleen and this node was determined by flow cytometry. […] In addition, this cell population of abnormal phenotype is replaced with T lymphocytes of normal phenotype CD4^+CD8^− and CD4^−CD8^+ (FIG. 5). However, the level of reduction of the number of these double-negative T cells depends on the duration of the treatment. […]

[7] = preventive, 5 μg/g, at T0+1 month
[8] = MRL+/+ mice treated with arsenic
[9] = MRL/lpr mice treated with arsenic
[10] = MRL/lpr, treated with arsenic for two months, treatment then stopped for two months
[11] = end of the first month of treatment, 5 μg/g

O=[As]O[As]=O (centres unmarked) [As2O3]
toxicity, preventive treatment ([1]; 15 μg/g of mouse): very toxic and the animals died after two months | non-lymphoid organs such as the heart or the kidney [1, 7]: not modified by the treatment | organ weight (lymphoproliferation, hepatomegaly) [1, 7]: normal weight | lymphoproliferation ([1]; preventive, 1.5 months old mice, 5 μg/g, at T0+1 month): virtually complete absence of the lymphoproliferation | Organ weight, 2 lungs [2, 8]: 0.32 grams and 0.30 grams | Organ weight, axillary nodes [2, 8]: 0.01 grams | Organ weight, heart [2, 8]: 0.22 grams | Organ weight, kidney [2, 8]: 0.44 grams | Organ weight, liver [2, 8]: 2.40 grams and 2.45 grams | Organ weight, mesenteric nodes [2, 8]: 0.05 grams and 0.03 grams | Organ weight, spleen [2, 8]: 0.10 grams and 0.15 grams | treatment-related pathologies ([2]; MRL+/+ mice, 5 μg/g, at T0+5 months): no sign of treatment-related pathologies | glucose level in the urine [3]: normal glucose level in the urine | soluble and membrane-associated FasL levels ([4]; ELISA of sera and Western blotting of lymphoid cell lysates, FIG. 10A): sharply decreased | serum IFN-α level ([4]; ELISA, FIG. 11A): maintained normal cytokine concentrations | serum TNF-α level ([4]; ELISA, FIG. 11B): maintained normal cytokine concentrations | Transaminase levels (GOT) ([4]; FIG. 10B): normalised | level of other inflammatory cytokines and NO ([4]; data not shown): reduced | survival ([4]; male and female chimeras with established GVH reaction, P<0.001, FIG. 12): significantly prolonged survival | survival of chimeras ([4]; two weeks after the transplant): alive | IFN-α synthesis ([5]; FIG. 11A): not affected | TNF-α synthesis ([5]; FIG. 11B): not affected | curative effect (skin lesions, size of the nodes) ([6]; 2.5 μg/g of mouse): not sufficiently effective | lupus-specific skin lesions ([6]; 5 μg of As2O3/g of mouse daily, after one week of treatment): spectacular signs of improvement | skin lesions ([6]; 5 μg/g): complete disappearance of skin lesions | skin lesions ([6]; 7.5 μg/g): complete disappearance of skin lesions | skin lesions ([6]; 10 μg/g): complete disappearance of skin lesions | toxicity, curative treatment ([6]; 15 μg/g of mouse): lethal in a few days | immunocomplexes in the kidney ([6]; FIG. 7): absence of immunocomplexes in the kidney | infiltration of the kidney by cells of the immune system ([6]; FIG. 7): do not shown any infiltration | Organ weight, 2 lungs [6, 9]: 0.33 grams and 0.40 grams | Organ weight, axillary nodes [6, 9]: 0.01 grams and 0.02 grams | Organ weight, heart [6, 9]: 0.20 grams and 0.25 grams | Organ weight, kidney [6, 9]: 0.52 grams and 0.53 grams | Organ weight, liver [6, 9]: 2.58 grams and 2.89 grams | Organ weight, mesenteric nodes [6, 9]: 0.05 grams | Organ weight, spleen [6, 9]: 0.13 grams and 0.17 grams | Organ weight, 2 lungs [6, 10]: 0.51 grams and 0.50 grams | Organ weight, heart [6, 10]: 0.29 grams and 0.26 grams | Organ weight, kidney [6, 10]: 0.55 grams | Organ weight, liver [6, 10]: 3.21 grams and 3.12 grams | Organ weight, mesenteric nodes [6, 10]: 1.97 grams and 1.03 grams | size of the spleen and of a mesenteric node ([6]; after 1 month and 20 days of treatment, FIG. 4): spectacular decrease | population of double-negative T lymphocytes TCRαβCD4-CD8-B220+ ([6]; after 1 month and 20 days of treatment, flow cytometry of spleen and node): virtually complete elimination | survival ([6]; after 4 months, FIG. 9 legend): all the treated animals are alive | survival and signs of pathology ([6]; after 35 weeks of treatment, FIG. 9): still alive with no signs of lymphoproliferation or of autoimmune pathologies | pulmonary architecture, infiltration by lymphoid cells ([6]; anatomopathology, FIG. 3): normal pulmonary architecture | amount of cytokines (alpha-IFN, gamma-IFN, IL-18, TNF-alpha, soluble FasL) ([6]; compared with normal MRL+/+ mice, FIG. 6): returns the amount of cytokines to a normal level | exophthalmia [6, 11]: spectacular decrease | lupus-related skin lesions [6, 11]: complete disappearance | lowest effective dose ([6]; mouse): 5 µg/g | glomerulonephritis ([6]; mouse, in vivo): significant reduction | weight of lymph nodes, spleen and liver compared to MRL+/+ mouse ([6]; summary of table 1): returns the following organs to a normal weight | double-negative T cells ([6]; treatment of three months): eliminate all the double-negative T cells | pathologies after stopping treatment ([6]; treatment stopped for three months): reappearance of the lymphoproliferation and of the hepatomegaly | treated mice alive ([6]; very sick MRL/lpr mice, at T0+14 weeks): 100%

Reference: US20090297624A1, “ARSENIC THERAPY FOR AUTOIMMUNE AND/OR INFLAMMATORY DISEASES IN MICE AND HUMANS” (CENTRE NATIONALE DE LA RECHERCHE SCIENTIFIQUE (CNRS), priority 2002, published 2009)
